Patent US20260103458A1, “Inhibitors of CDK8 and CDK19” (University of Dundee, priority 2022, published 2026)

Tests used:
CDK19 = target: T1, CDK19 (Homo sapiens, UniProt Q9BWU1); assay: Kinase competition binding assay (Kd, qPCR readout), CDK19; conditions: in vitro binding; 11-point 3-fold dilution series; read-out: pKd (CDK19) (converted)
T1 construct: made in house; host or cells: E. coli BL21-derived host (T7 phage display) or HEK-293 cells
Protocol: (§1) Compounds 1 to 11 were tested for their in vitro binding activity against CDK8 and CDK19.
(§2) Kinase assays: Kinase-tagged T7 phage strains were prepared in an E. coli host derived from the BL21 strain. E. coli were grown to log-phase and infected with T7 phage and incubated with shaking at 32° C. until lysis. The lysates were centrifuged and filtered to remove cell debris. The remaining kinases were produced in HEK-293 cells and subsequently tagged with DNA for qPCR detection. Streptavidin-coated magnetic beads were treated with biotinylated small molecule ligands for 30 minutes at room temperature to generate affinity resins for kinase assays. The liganded beads were blocked with excess biotin and washed with blocking buffer (SeaBlock (Pierce), 1% BSA, 0.05% Tween 20, 1 mM DTT) to remove unbound ligand and to reduce non-specific binding. Binding reactions were assembled by combining kinases, liganded affinity beads, and test compounds in 1× binding buffer (20% SeaBlock, 0.17×PBS, 0.05% Tween 20, 6 mM DTT). Test compounds were prepared as 111× stocks in 100% DMSO. Kds were determined using an 11-point 3-fold compound dilution series with three DMSO control points. All compounds for Kd measurements are distributed by acoustic transfer (non-contact dispensing) in 100% DMSO. The compounds were then diluted directly into the assays such that the final concentration of DMSO was 0.9%. All reactions performed in polypropylene 384-well plate. Each was a final volume of 0.02 ml. The assay plates were incubated at room temperature with shaking for 1 hour and the affinity beads were washed with wash buffer (1×PBS, 0.05% Tween 20). The beads were then re-suspended in elution buffer (1×PBS, 0.05% Tween 20, 0.5 μM nonbiotinylated affinity ligand) and incubated at room temperature with shaking for 30 minutes. The kinase concentration in the eluates was measured by qPCR.
(§3) Compound handling: An 11-point 3-fold serial dilution of each test compound was prepared in 100% DMSO at 100× final test concentration and subsequently diluted to 1× in the assay (final DMSO concentration=1%). Most Kds were determined using a compound top concentration=30,000 nM. If the initial Kd determined was <0.5 nM (the lowest concentration tested), the measurement was repeated with a serial dilution starting at a lower top concentration.
(§4) Binding constants: Binding constants (Kds) were calculated with a standard dose-response curve using the Hill equation: […]
(§5) The Hill Slope was set to −1.
(§6) Curves were fitted using a non-linear least square fit with the Levenberg-Marquardt algorithm.

CDK8 = target: T2, CDK8 (Homo sapiens, UniProt P49336); assay: Kinase competition binding assay (Kd, qPCR readout), CDK8; conditions: in vitro binding; 11-point 3-fold dilution series; read-out: pKd (CDK8) (converted)
T2 construct: made in house; host or cells: E. coli BL21-derived host (T7 phage display) or HEK-293 cells
T2 sequence (P49336 whole entry): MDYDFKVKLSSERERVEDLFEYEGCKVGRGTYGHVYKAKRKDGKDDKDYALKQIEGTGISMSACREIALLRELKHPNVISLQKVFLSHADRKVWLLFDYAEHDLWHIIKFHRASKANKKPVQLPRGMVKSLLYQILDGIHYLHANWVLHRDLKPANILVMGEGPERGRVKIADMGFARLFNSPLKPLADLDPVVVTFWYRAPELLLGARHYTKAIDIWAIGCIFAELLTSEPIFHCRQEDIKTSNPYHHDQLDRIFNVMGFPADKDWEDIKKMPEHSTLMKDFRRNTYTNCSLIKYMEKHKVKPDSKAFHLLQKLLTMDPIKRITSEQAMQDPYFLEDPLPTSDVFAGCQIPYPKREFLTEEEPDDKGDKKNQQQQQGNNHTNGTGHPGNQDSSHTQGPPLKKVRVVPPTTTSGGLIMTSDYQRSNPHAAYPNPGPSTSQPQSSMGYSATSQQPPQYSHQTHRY
Protocol: as §1, §2, §3, §4, §5, §6

T1 sequence (Q9BWU1 whole entry): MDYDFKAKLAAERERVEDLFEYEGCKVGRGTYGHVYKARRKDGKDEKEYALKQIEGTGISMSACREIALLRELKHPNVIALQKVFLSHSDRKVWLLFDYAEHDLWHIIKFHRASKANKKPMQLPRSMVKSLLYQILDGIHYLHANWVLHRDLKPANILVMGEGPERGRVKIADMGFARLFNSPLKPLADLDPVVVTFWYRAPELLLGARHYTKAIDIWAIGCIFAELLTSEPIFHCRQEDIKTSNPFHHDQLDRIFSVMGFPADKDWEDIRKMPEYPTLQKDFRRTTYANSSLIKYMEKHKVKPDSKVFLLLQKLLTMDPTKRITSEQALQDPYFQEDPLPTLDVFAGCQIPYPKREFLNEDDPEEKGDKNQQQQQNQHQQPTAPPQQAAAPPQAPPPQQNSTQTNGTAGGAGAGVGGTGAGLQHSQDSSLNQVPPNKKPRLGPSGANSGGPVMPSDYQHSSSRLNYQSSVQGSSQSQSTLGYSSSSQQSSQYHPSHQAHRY

| Compound | Kd (CDK19) [nM] | Kd (CDK8) [nM] |
| --- | --- | --- |
| Cn1cnc(C(=O)NC2CCN(c3snc4ccc(F)cc34)CC2)c1 [Compound 4, N-(1-(5-fluorobenzo[c]isothiazol-3-yl)piperidin-4-yl)-1-methyl-1H-imidazole-4-carboxamide] | 50.1 | 63.1 |
| CN(C)C(=O)Cn1cnc(C(=O)NC2CCN(c3snc4ccccc34)CC2)c1 [Compound 7, N-(1-(benzo[c]isothiazol-3-yl)piperidin-4-yl)-1-(2-(dimethylamino)-2-oxoethyl)-1H-imidazole-4-carboxamide] | 200 | 631 |
| O=C(NC1CCN(c2snc3ccc(F)cc23)CC1)c1cn(Cc2cnccn2)cn1 [Compound 6, N-(1-(5-fluorobenzo[c]isothiazol-3-yl)piperidin-4-yl)-1-(pyrazin-2-ylmethyl)-1H-imidazole-4-carboxamide] | 20 | 25.1 |
| O=C(NC1CCN(c2snc3ccccc23)CC1)c1cn(Cc2cnccn2)cn1 [Compound 5, N-(1-(benzo[c]isothiazol-3-yl)piperidin-4-yl)-1-(pyrazin-2-ylmethyl)-1H-imidazole-4-carboxamide] | 79.4 | 200 |
| Cn1cnc(C(=O)NC2CCN(c3snc4ccccc34)CC2)c1 [Compound 3, N-(1-(benzo[c]isothiazol-3-yl)piperidin-4-yl)-1-methyl-1H-imidazole-4-carboxamide] | 158 | 398 |
| CC(=O)NC1CCN(c2snc3ccccc23)CC1 [Compound 2, N-(1-(benzo[c]isothiazol-3-yl)piperidin-4-yl)acetamide] | 6310 | 10000 |
| CNC1CCN(c2snc3ccccc23)CC1 [Compound 1, 1-(benzo[c]isothiazol-3-yl)-N-methylpiperidin-4-amine] | 31600 | 31600 |

The remaining lines, values ahead:

| Kd (CDK19) [nM] | Kd (CDK8) [nM] | Compound |
| --- | --- | --- |
| 100 | 501 | O=C(NC1CCN(c2snc3ccccc23)CC1)c1cn(Cc2ncccn2)cn1 [Compound 11, N-(1-(benzo[c]isothiazol-3-yl)piperidin-4-yl)-1-(pyrimidin-2-ylmethyl)-1H-imidazole-4-carboxamide] |
| 1260 | 3980 | CN(C)CCn1cnc(C(=O)NC2CCN(c3snc4ccccc34)CC2)c1 [Compound 9, N-(1-(benzo[c]isothiazol-3-yl)piperidin-4-yl)-1-(2-(dimethylamino)ethyl)-1H-imidazole-4-carboxamide] |
| 316 | 501 | CN(C)C(=O)Cn1cnc(C(=O)NC2CCN(c3snc4ccc(F)cc34)CC2)c1 [Compound 8, 1-(2-(dimethylamino)-2-oxoethyl)-N-(1-(5-fluorobenzo[c]isothiazol-3-yl)piperidin-4-yl)-1H-imidazole-4-carboxamide] |
| 100 | 316 | O=C(NC1CCN(c2snc3ccccc23)CC1)c1cn(CC2COC2)cn1 [Compound 10, N-(1-(benzo[c]isothiazol-3-yl)piperidin-4-yl)-1-(oxetan-3-ylmethyl)-1H-imidazole-4-carboxamide] |
